Values of other authors in US8288437B2, “Salts, aqueous liquid compositions containing salts of abscisic acid analogs and methods of their preparation” (Valent BioSciences Corporation, priority 2008, dated 2012).

Settings: pure water at room temperature

CC1=CC(=O)CC(C)(C)[C@@]1(O)/C=C/C(C)=C\C(=O)O [(S)-(+)-abscisic acid, 2-cis-,4-trans-(S)-(+)-abscisic acid]
highest concentration that can be achieved in pure water: ≤ 3000 ppm
